Data published in patent US20110086759A1, “CHEMICAL COMPOUNDS” (SYNGENTA CROP PROTECTION, INC., priority 2007, published 2011).

Legend:
Assay type in all cases: in vivo
[1] = test system: Alopecurus myosuroides (ALOMY); assay: Pre-emergence biological efficacy, glasshouse pot test; conditions: 312 h, evaluated after 13 days (100=total damage; 0=no damage), read-out: Percentage damage ALOMY; for pest or weed control at 1000 g/ha: pre-emergence, 1,000 g/ha
Procedure, shortened: (§1)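 Visual phytotoxicity (0 no damage, 100 total damage) assessed 13 d after treatment. Soil-sown pots sprayed one day post-sowing; dose 1000 or 250 g/ha; formulation in acetone/water 50:50, 0.5% Tween 20.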

[2] = test system: Amaranthus retoflexus (AMARE); assay: as above; conditions: Amaranthus retroflexus, 312 h, evaluated after 13 days (100=total damage; 0=no damage), read-out: Percentage damage AMARE; for pest or weed control at 1000 g/ha: pre-emergence, 1,000 g/ha
Procedure, shortened: as §1

[3] = test system: Echinochloa crus-galli (ECHCG); assay: as above; conditions: 312 h, evaluated after 13 days (100=total damage; 0=no damage), read-out: Percentage damage ECHCG; for pest or weed control at 1000 g/ha: pre-emergence, 1,000 g/ha
Procedure, shortened: as §1

[4] = test system: Ipomea hederaceae (IPOHE); assay: as above; conditions: Ipomoea hederacea, 312 h, evaluated after 13 days (100=total damage; 0=no damage), read-out: Percentage damage IPOHE; for pest or weed control at 1000 g/ha: pre-emergence, 1,000 g/ha
Procedure, shortened: as §1

[5] = test system: Setaria faberi (SETFA); assay: as above; conditions: 312 h, evaluated after 13 days (100=total damage; 0=no damage), read-out: Percentage damage SETFA; for pest or weed control at 1000 g/ha: pre-emergence, 1,000 g/ha
Procedure, shortened: as §1

[6] = test system: Solanum nigrum (SOLNI); assay: as above; conditions: 312 h, evaluated after 13 days (100=total damage; 0=no damage), read-out: Percentage damage SOLNI; for pest or weed control at 1000 g/ha: pre-emergence, 1,000 g/ha
Procedure, shortened: as §1

[7] = test system: Alopecurus myosuroides (ALOMY); assay: Post-emergence biological efficacy, glasshouse pot test; conditions: 312 h, evaluated after 13 days (100=total damage; 0=no damage), read-out: Percentage damage caused to weed species, ALOMY; for pest or weed control at 1000 g/ha: post-emergence, 1,000 g/ha
Procedure, shortened: (§2)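 Pot-grown weeds were sprayed 8 days after sowing with test compound in acetone/water (50:50) with 0.5% Tween 20 at 1000 or 250 g/ha. Glasshouse at 24/16° C day/night, 14 h light, 65% humidity. Damage scored 0-100 (100 = total damage) after 13 days.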

[8] = test system: Amaranthus retoflexus (AMARE); assay: as above; conditions: Amaranthus retroflexus, 312 h, evaluated after 13 days (100=total damage; 0=no damage), read-out: Percentage damage caused to weed species, AMARE; for pest or weed control at 1000 g/ha: post-emergence, 1,000 g/ha
Procedure, shortened: as §2

[9] = test system: Echinochloa crus-galli (ECHCG); assay: as above; conditions: 312 h, evaluated after 13 days (100=total damage; 0=no damage), read-out: Percentage damage caused to weed species, ECHCG; for pest or weed control at 1000 g/ha: post-emergence, 1,000 g/ha
Procedure, shortened: as §2

[10] = test system: Ipomea hederaceae (IPOHE); assay: as above; conditions: Ipomoea hederacea, 312 h, evaluated after 13 days (100=total damage; 0=no damage), read-out: Percentage damage caused to weed species, IPOHE; for pest or weed control at 1000 g/ha: post-emergence, 1,000 g/ha
Procedure, shortened: as §2

[11] = test system: Setaria faberi (SETFA); assay: as above; conditions: 312 h, evaluated after 13 days (100=total damage; 0=no damage), read-out: Percentage damage caused to weed species, SETFA; for pest or weed control at 1000 g/ha: post-emergence, 1,000 g/ha
Procedure, shortened: as §2

[12] = test system: Solanum nigrum (SOLNI); assay: as above; conditions: 312 h, evaluated after 13 days (100=total damage; 0=no damage), read-out: Percentage damage caused to weed species, SOLNI; for pest or weed control at 1000 g/ha: post-emergence, 1,000 g/ha
Procedure, shortened: as §2

Row | SMILES | pest or weed control at 1000 g/ha [1] [%] | pest or weed control at 1000 g/ha [2] [%] | pest or weed control at 1000 g/ha [3] [%] | pest or weed control at 1000 g/ha [4] [%] | pest or weed control at 1000 g/ha [5] [%] | pest or weed control at 1000 g/ha [6] [%] | pest or weed control at 1000 g/ha [7] [%] | pest or weed control at 1000 g/ha [8] [%] | pest or weed control at 1000 g/ha [9] [%] | pest or weed control at 1000 g/ha [10] [%] | pest or weed control at 1000 g/ha [11] [%] | pest or weed control at 1000 g/ha [12] [%] | further results
1 | COC(=O)c1nc(C2CC2)nc(NCc2ccc(F)cc2)c1Cl [Compound 4-66, 5-Chloro-2-cyclopropyl-4-(4-fluorophenyl-methylamino)-6-methoxy-carbonylpyrimidine] | 40 | 90 | 50 | 90 | 80 | 90 | 20 | 100 | 70 | 100 | 90 | 100 | –
2 | COC(=O)c1nc(C2CC2)nc(NCc2ccccc2Br)c1Cl [Compound 4-67, 4-(2-Bromophenyl-methylamino)-5-chloro-2-cyclopropyl-6-methoxycarbonyl-pyrimidine] | – | – | – | – | – | – | – | – | – | – | – | – | pest or weed control at 250 g/ha ([1]; pre-emergence, 250 g/ha): 0%; pest or weed control at 250 g/ha ([2]; pre-emergence, 250 g/ha): 40%; pest or weed control at 250 g/ha ([3]; pre-emergence, 250 g/ha): 0%; pest or weed control at 250 g/ha ([4]; pre-emergence, 250 g/ha): 0%; pest or weed control at 250 g/ha ([5]; pre-emergence, 250 g/ha): 0%; pest or weed control at 250 g/ha ([6]; pre-emergence, 250 g/ha): 20%; pest or weed control at 250 g/ha ([7]; post-emergence, 250 g/ha): 20%; pest or weed control at 250 g/ha ([8]; post-emergence, 250 g/ha): 90%; pest or weed control at 250 g/ha ([9]; post-emergence, 250 g/ha): 50%; pest or weed control at 250 g/ha ([10]; post-emergence, 250 g/ha): 80%; pest or weed control at 250 g/ha ([11]; post-emergence, 250 g/ha): 70%; pest or weed control at 250 g/ha ([12]; post-emergence, 250 g/ha): 90%
3 | COC(=O)c1nc(C2CC2)nc(NCc2cccc(Br)c2)c1Cl [Compound 4-68, 4-(3-Bromophenyl-methylamino)5-chloro-2-cyclopropyl-6-methoxycarbonyl-pyrimidine] | 10 | 50 | 10 | 60 | 10 | 20 | 20 | 100 | 60 | 100 | 90 | 90 | –
4 | COC(=O)c1nc(C2CC2)nc(NCc2cccc(I)c2)c1Cl [Compound 4-70, 5-Chloro-2-cyclopropyl-4-(3-iodophenylmethyl-amino)-6-methoxy-carbonylpyrimidine] | 10 | 40 | 30 | 60 | 20 | 30 | 20 | 100 | 70 | 100 | 90 | 100 | –
5 | COC(=O)c1nc(C2CC2)nc(NCc2ccccc2C)c1Cl [Compound 4-71, 5-Chloro-2-cyclopropyl-6-methoxycarbonyl-4-(2-methylphenyl-methylamino)-pyrimidine] | 20 | 90 | 20 | 70 | 20 | 20 | 20 | 100 | 60 | 100 | 80 | 90 | –
6 | COC(=O)c1nc(C2CC2)nc(NCc2cccc(C)c2)c1Cl [Compound 4-72, 5-Chloro-2-cyclopropyl-6-methoxycarbonyl-4-(3-methylphenyl-methylamino)-pyrimidine] | 10 | 60 | 40 | 40 | 10 | 40 | 10 | 100 | 50 | 100 | 30 | 100 | –
7 | COC(=O)c1nc(C2CC2)nc(NCc2ccc(C)cc2)c1Cl [Compound 4-73, 5-Chloro-2-cyclopropyl-6-methoxycarbonyl-4-(4-methylphenyl-methylamino)-pyrimidine] | 10 | 70 | 30 | 80 | 20 | 60 | 20 | 100 | 60 | 100 | 80 | 100 | –
8 | COC(=O)c1nc(C2CC2)nc(NCc2ccc(C(C)C)cc2)c1Cl [Compound 4-74, 5-Chloro-2-cyclopropyl-4-(4-isopropylphenyl-methlamino)-6-methoxycarbonyl-pyrimidine] | 10 | 80 | 30 | 60 | 10 | 70 | 20 | 90 | 70 | 100 | 80 | 100 | –
9 | COC(=O)c1nc(C2CC2)nc(NCc2ccccc2C(F)(F)F)c1Cl [Compound 4-75, 5-Chloro-2-cyclopropyl-6-methoxycarbonyl-4-(2-trifluoromethyl-phenylmethyl-amino)-pyrimidine] | 10 | 50 | 0 | 20 | 10 | 30 | 20 | 100 | 50 | 100 | 90 | 100 | –
